This is an account of results in patent US12649750B2, “Macrocyclic compounds, compositions, and methods of using thereof” (Sionna Therapeutics Inc., priority 2022, dated 2026).

T1 sequence (P13569 423-646 limits assumed): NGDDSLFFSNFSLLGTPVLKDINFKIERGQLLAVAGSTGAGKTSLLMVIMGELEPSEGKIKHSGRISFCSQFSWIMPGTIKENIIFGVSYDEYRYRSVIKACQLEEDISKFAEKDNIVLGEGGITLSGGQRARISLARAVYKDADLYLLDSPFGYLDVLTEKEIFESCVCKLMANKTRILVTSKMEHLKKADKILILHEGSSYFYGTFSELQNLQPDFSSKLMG

This test addresses T1, NBD1 (Homo sapiens, UniProt P13569).
T1 construct: Purified recombinant NBD1 was produced using previously described methods; made in house
In words: Aggregation analysis using differential static light scattering (DSLS), thermal stability of NBD1 (ΔTagg). It counts as binding. Particulars: ΔTagg versus DMSO control, NBD1 0.2 mg/ml. In a few lines: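 Purified recombinant NBD1 at 0.2 mg/ml in Tris buffer pH7.6 with 2 mM ATP, 5 mM MgCl2, 2 mM DTT and 1% glycerol was mixed with DMSO-dissolved compounds under mineral oil. Plates were heated at 1° C. per minute to 70° C., light scattering imaged every 0.5° C.; Tagg from curve inflection, minus DMSO-control mean.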
`Cn1nc2nc1-c1cc(ccn1)S(=O)(=O)c1c(F)c(F)c3[nH]ccc3c1CCS(=O)(=O)CC(C)(C)CCC[C@]2(C)c1cccc(CC2(C(=O)O)CC2)c1` [Compound 310, 1-[[3-[(6R)-21,22-difluoro-3,6,10,10-tetramethyl-12,12,24,24-tetraoxo-12λ6,24λ6-dithia-3,4,19,28,30-pentazapentacyclo[23.3.1.12,5.015,23.016,20]triaconta-1(29),2(30),4,15,17,20,22,25,27-nonaen-6-yl]phenyl]methyl]cyclopropanecarboxylic acid]: the “DSLS 3D (100 μM ΔT)” value is “A (an ΔTagg value less than or equal to 5 °C is marked “A”)”.
Turning to `Cn1nc2nc1-c1cc(ccn1)Cc1c(F)cc3[nH]ccc3c1CCS(=O)(=O)CC(C)(C)CCC[C@]2(C)c1cccc(C[C@@H](O)CO)c1` [Compound 311, (2R)-3-[3-[(6R)-22-Fluoro-3,6,10,10-tetramethyl-12,12-dioxo-12λ6-thia-3,4,19,28,30-pentazapentacyclo[23.3.1.12,5.015,23.016,20]triaconta-1(29),2(30),4,15,17,20,22,25,27-nonaen-6-yl]phenyl]propane-1,2-diol], the “DSLS 3D (100 μM ΔT)” value is “A (an ΔTagg value less than or equal to 5 °C is marked “A”)”.
Take `Cn1nc2nc1-c1cc(ccn1)Cc1c(F)cc3[nH]ccc3c1CCS(=O)(=O)CC(C)(C)CCC[C@]2(C)c1cccc(C[C@H](O)CO)c1` [Compound 312, (2S)-3-[3-[(6R)-22-Fluoro-3,6,10,10-tetramethyl-12,12-dioxo-12λ6-thia-3,4,19,28,30-pentazapentacyclo[23.3.1.12,5.015,23.016,20]triaconta-1(29),2(30),4,15,17,20,22,25,27-nonaen-6-yl]phenyl]propane-1,2-diol]: the “DSLS 3D (100 μM ΔT)” value was “A (an ΔTagg value less than or equal to 5 °C is marked “A”)”.
On to `Cn1nc2nc1-c1cc(ccn1)Cc1c(F)cc3[nH]ccc3c1CCS(=O)(=O)CC(C)(C)CCC[C@]2(C)c1cccc(CC2(C(=O)O)CC2)c1` [Compound 313, 1-[[3-[(6R)-22-Fluoro-3,6,10,10-tetramethyl-12,12-dioxo-12λ6-thia-3,4,19,28,30-pentazapentacyclo[23.3.1.12,5.015,23.016,20]triaconta-1(29),2(30),4,15,17,20,22,25,27-nonaen-6-yl]phenyl]methyl]cyclopropanecarboxylic acid], for which the “DSLS 3D (100 μM ΔT)” value is “B (a value above 5 °C and less than or equal to 10 °C is marked “B”)”.
Take `C[C@@H](Cc1cccc(C2(C)CCCC(C)(C)CS(=O)(=O)CCc3c(c(F)cc4[nH]ccc34)S(=O)(=O)c3ccnc(c3)-c3nc2nn3C)n1)C(=O)O` (stereo partly drawn) [Compound 315E, (2S)-3-[6-(22-fluoro-3,6,10,10-tetramethyl-12,12,24,24-tetraoxo-12λ6,24λ6-dithia-3,4,19,28,30-pentazapentacyclo[23.3.1.12,5.015,23.016,20]triaconta-1(29),2(30),4,15,17,20,22,25,27-nonaen-6-yl)-2-pyridyl]-2-methyl-propanoic Acid]: the “DSLS 3D (100 μM ΔT)” value is “A (an ΔTagg value less than or equal to 5 °C is marked “A”)”.
For the compound `C[C@H](Cc1cccc([C@@]2(C)CCCC(C)(C)CS(=O)(=O)CCc3c(c(F)c(F)c4[nH]ccc34)S(=O)(=O)c3ccc(F)c(c3)-c3nc2nn3C)c1)C(=O)O` [Compound 320, (2R)-2-Methyl-3-[3-[(6R)-21,22,28-trifluoro-3,6,10,10-tetramethyl-12,12,24,24-tetraoxo-12λ6,24λ6-dithia-3,4,19,30-tetrazapentacyclo[23.3.1.12,5.015,23.016,20]triaconta-1(29),2(30),4,15,17,20,22,25,27-nonaen-6-yl]phenyl]propanoic acid], the “DSLS 3D (100 μM ΔT)” value was “B (a value above 5 °C and less than or equal to 10 °C is marked “B”)”.
On to `Cc1c[nH]c2c(F)c(F)c3c(c12)CCS(=O)(=O)CC(C)(C)CCC[C@](C)(c1cccc(C[C@@H](C)C(=O)O)c1)c1nc(n(C)n1)-c1cc(ccc1F)O3` [Compound 321, (2R)-2-Methyl-3-[3-[(6R)-21,22,28-trifluoro-3,6,10,10,17-pentamethyl-12,12-dioxo-24-oxa-12λ6-thia-3,4,19,30-tetrazapentacyclo[23.3.1.12,5.015,23.016,20]triaconta-1(29),2(30),4,15,17,20,22,25,27-nonaen-6-yl]phenyl]propanoic Acid], for which the “DSLS 3D (100 μM ΔT)” value was “A (an ΔTagg value less than or equal to 5 °C is marked “A”)”.
`C[C@H](Cc1cccc([C@@]2(C)CCCC(C)(C)CS(=O)(=O)CCc3c(c(F)c(F)c4[nH]cc(C#N)c34)Oc3ccc(F)c(c3)-c3nc2nn3C)c1)C(=O)O` [Compound 322, (2R)-3-[3-[(6R)-17-Cyano-21,22,28-trifluoro-3,6,10,10-tetramethyl-12,12-dioxo-24-oxa-12λ6-thia-3,4,19,30-tetrazapentacyclo[23.3.1.12,5.015,23.016,20]triaconta-1(29),2(30),4,15,17,20,22,25,27-nonaen-6-yl]phenyl]-2-methyl-propanoic Acid]: the “DSLS 3D (100 μM ΔT)” value was “B (a value above 5 °C and less than or equal to 10 °C is marked “B”)”.
Consider `Cn1nc2nc1-c1cc(ccn1)Oc1c(F)c(F)c3[nH]ccc3c1CCS(=O)(=O)CC(C)(C)CCC[C@]2(C)c1cccc(CC(C)(C)C(=O)O)c1` [Compound 323, 3-[3-[(6R)-21,22-Difluoro-3,6,10,10-tetramethyl-12,12-dioxo-24-oxa-12λ6-thia-3,4,19,28,30-pentazapentacyclo[23.3.1.12,5.015,23.016,20]triaconta-1(29),2(30),4,15,17,20,22,25,27-nonaen-6-yl]phenyl]-2,2-dimethyl-propanoic Acid], for which the “DSLS 3D (100 μM ΔT)” value was “B (a value above 5 °C and less than or equal to 10 °C is marked “B”)”.
For the compound `Cn1nc2nc1-c1cc(ccc1F)Oc1c(F)c(F)c3[nH]ccc3c1CCS(=O)(=O)CC(C)(C)CCC[C@]2(C)c1cccc(CC(C)(C)C(=O)O)c1` [Compound 324, 2,2-Dimethyl-3-[3-[(6R)-21,22,28-trifluoro-3,6,10,10-tetramethyl-12,12-dioxo-24-oxa-12λ6-thia-3,4,19,30-tetrazapentacyclo[23.3.1.12,5.015,23.016,20]triaconta-1(29),2(30),4,15,17,20,22,25,27-nonaen-6-yl]phenyl]propanoic Acid], the “DSLS 3D (100 μM ΔT)” value was “B (a value above 5 °C and less than or equal to 10 °C is marked “B”)”.
In the case of `Cn1nc2nc1-c1cc(ccc1F)Sc1c(F)c(F)c3[nH]cc(CC(=O)O)c3c1CCS(=O)(=O)CC(C)(C)CCC[C@]2(C)c1ccccc1` [Compound 325, 2-[(6R)-21,22,28-Trifluoro-3,6,10,10-tetramethyl-12,12-dioxo-6-phenyl-12λ6,24-dithia-3,4,19,30-tetrazapentacyclo[23.3.1.12,5.015,23.016,20]triaconta-1(29),2(30),4,15,17,20,22,25,27-nonaen-17-yl]acetic Acid], the “DSLS 3D (100 μM ΔT)” value was “B (a value above 5 °C and less than or equal to 10 °C is marked “B”)”.
With `C[C@H](Cc1cccc([C@@]2(C)CCCC(C)(C)CS(=O)(=O)CCc3c(c(F)c(F)c4[nH]cc(Cl)c34)Oc3ccc(F)c(c3)-c3nc2nn3C)c1)C(=O)O` [Compound 327], the “DSLS 3D (100 μM ΔT)” value is “A (an ΔTagg value less than or equal to 5 °C is marked “A”)”.
With `C[C@H](Cc1cccc([C@@]2(C)CCCC(C)(C)CS(=O)(=O)CCc3c(c(F)c(F)c4[nH]ccc34)Oc3ccc(F)c(c3)-c3nc2nn3C)c1)C(=O)NS(=O)(=O)C1CC1` [Compound 328, (2R)—N-Cyclopropylsulfonyl-2-methyl-3-[3-[(6R)-21,22,28-trifluoro-3,6,10,10-tetramethyl-12,12-dioxo-24-oxa-12λ6-thia-3,4,19,30-tetrazapentacyclo[23.3.1.12,5.015,23.016,20]triaconta-1(29),2(30),4,15,17,20,22,25,27-nonaen-6-yl]phenyl]propenamide], the “DSLS 3D (100 μM ΔT)” value was “B (a value above 5 °C and less than or equal to 10 °C is marked “B”)”.
For the compound `C[C@@H](Cc1cccc([C@@]2(C)CCCC(C)(C)CS(=O)(=O)CCc3c(c(F)cc4[nH]ccc34)S(=O)(=O)c3ccc(F)c(c3)-c3nc2nn3C)c1)C(=O)O` [Compound 329, (2S)-3-[3-[(6R)-22,28-Difluoro-3,6,10,10-tetramethyl-12,12,24,24-tetraoxo-12λ6,24λ6-dithia-3,4,19,30-tetrazapentacyclo[23.3.1.12,5.015,23.016,20]triaconta-1(29),2(30),4,15,17,20,22,25,27-nonaen-6-yl]phenyl]-2-methyl-propanoic Acid], the “DSLS 3D (100 μM ΔT)” value is “B (a value above 5 °C and less than or equal to 10 °C is marked “B”)”.
Take `C[C@@H](Cc1cccc([C@@]2(C)CCCC(C)(C)CS(=O)(=O)CCc3c(c(F)cc4[nH]ccc34)S(=O)(=O)c3cccc(c3)-c3coc2n3)c1)C(=O)O` [Compound 331, (2S)-3-[3-[(6R)-22-Fluoro-6,10,10-trimethyl-12,12,24,24-tetraoxo-4-oxa-12λ6,24λ6-dithia-19,30-diazapentacyclo[23.3.1.12,5.015,23.016,20]triaconta-1(29),2,5(30),15,17,20,22,25,27-nonaen-6-yl]phenyl]-2-methyl-propanoic acid]: the “DSLS 3D (100 μM ΔT)” value is “A (an ΔTagg value less than or equal to 5 °C is marked “A”)”.
Consider `CC(=O)OC[C@H](Cc1cccc([C@@]2(C)CCCC(C)(C)CS(=O)(=O)CCc3c(c(F)cc4[nH]ccc34)Sc3ccnc(c3)-c3nc2nn3C)c1)OC(C)=O` [Compound 332], for which the “DSLS 3D (100 μM ΔT)” value was “A (an ΔTagg value less than or equal to 5 °C is marked “A”)”.
In the case of `Cn1nc2nc1-c1cc(ccn1)Sc1c(F)cc3[nH]ccc3c1CCS(=O)(=O)CC(C)(C)CCC[C@]2(C)c1cccc(C[C@H](O)CO)c1` [Compound 333, (2S)-3-[3-[(6R)-22-Fluoro-3,6,10,10-tetramethyl-12,12-dioxo-12λ6,24-dithia-3,4,19,28,30-pentazapentacyclo[23.3.1.12,5.015,23.016,20]triaconta-1(29),2(30),4,15,17,20,22,25,27-nonaen-6-yl]phenyl]propane-1,2-diol], the “DSLS 3D (100 μM ΔT)” value is “B (a value above 5 °C and less than or equal to 10 °C is marked “B”)”.
